Results on one molecule are retold here after PMC6014988, “Precision therapeutic targeting of human cancer cell motility” (Nature Communications, 2018).

Test [1] deals with T1, cysteine and glycine-rich protein 1 (Homo sapiens, UniProt P21291).
T1 construct: purchased Invitrogen
In words: ProtoArray binding, cysteine and glycine-rich protein 1. Conditions: 10 fold excess free KBU2046. How it is done:
The ProtoArray® assay, using the Human Protein Microarray platform, was performed by Invitrogen. […]
followed by detection with FITC-streptavidin, and visualization by fluorescent microscopy (with equal exposure times). (d) Protein array hybridization. KBU2046-biotin was hybridized to ProtoArray® Human Protein Microarray’s at 0.5 and 10 µM with and without 10 fold excess free KBU2046. We first sought proteins that met the following criteria, and did so at both 0.5 and 10 µM concentrations of KBU2046-biotin (in the absence of free KBU2046): Z-Score greater than 2.5, Z-Factor greater than 0.5, CI P-value less than 0.05, negative control value <2,000 (relative fluorescence units; RFUs), and a signal/negative control signal of >10 and >5 for 10 µM and 0.5 µM conditions, respectively. This yielded 3 proteins, shown in table, for an initial hit rate of 0.03%. We then required free KBU2046 to inhibit binding by >75%. Of the two remaining candidates, we eliminated isovaleryl-CoA dehydrogenase (ICD). Its binding signal doubled on […]
suspected non-specific binding by the biotin-linker moiety. We deemed cysteine and glycine-rich protein 1 (CSRP1) our top priority protein, though its binding characteristics at 10 µM + free KBU2046 were similar to ICD, albeit not as extreme. We thus evaluated whether KBU2046- […]
There were two additional notable findings from protein array studies. […]

A further test concerns the target T2, CDC37 (Homo sapiens, UniProt Q16543).
T2 construct: made in house; host or cells: BL-21 DE-3 E. coli
In words: Biophysical binding assays and DARTS, isolated CDC37. The following applies: ITC, thermal shift, biolayer interferometry, dynamic light scattering, DARTS. The method, then: Fluorescent thermal shift, isothermal titration calorimetry, and biolayer interferometry assays[46] were all performed as described by us using MEK4EE (37-399, S257E, T261E) cloned into pMCSG7 and KRX Competent E. coli cells (Promega Inc.) and above denoted full-length HSP90B and CDC37 vectors and Rosetta BL-21 and BL-21 DE-3 competent E. coli cells, respectively. DARTS assays were conducted as described, using equimolar amounts of CDC37 and HSP90β, thermolysin digestion, and silver stain visualization (ProteoSilver Silver Stain Kit, Sigma-Aldrich).
Supplementary Figure 14. […] Studies used purified […]
recombinant HSP90β or CDC37. Fluorescent thermal shift 5, isothermal titration calorimetry 6, […]
evidence of KBU2046 binding to either HSP90β or CDC37 (data not shown). For DARTS assay, HSP90β or CDC37 were individually pre-incubated with KBU2046, thermolysin added, and reaction products were separated by SDS PAGE and visualized by silver stain (depicted above).
NTco – no thermolysin control. However, when the DARTS assay was conducted with both HSP90β and CDC37 present, KBU2046 protected both proteins from degradation in a concentration-dependent manner (see manuscript Fig 5A).
(also on this page, place not known: HSP90 Ntco 0 0.001 0.01 0.1 1.0 10 µM KBU2046, thermolysin NTco thermolysin CDC37)
(1 picture or pasted object on this page, not shown here)

T1 sequence (P21291 whole entry): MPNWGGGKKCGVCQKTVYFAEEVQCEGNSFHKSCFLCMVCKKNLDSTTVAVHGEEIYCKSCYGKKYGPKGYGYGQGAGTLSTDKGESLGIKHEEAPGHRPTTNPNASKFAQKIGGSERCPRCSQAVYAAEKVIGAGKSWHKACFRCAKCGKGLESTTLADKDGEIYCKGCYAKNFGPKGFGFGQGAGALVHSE
T2 sequence (Q16543 whole entry): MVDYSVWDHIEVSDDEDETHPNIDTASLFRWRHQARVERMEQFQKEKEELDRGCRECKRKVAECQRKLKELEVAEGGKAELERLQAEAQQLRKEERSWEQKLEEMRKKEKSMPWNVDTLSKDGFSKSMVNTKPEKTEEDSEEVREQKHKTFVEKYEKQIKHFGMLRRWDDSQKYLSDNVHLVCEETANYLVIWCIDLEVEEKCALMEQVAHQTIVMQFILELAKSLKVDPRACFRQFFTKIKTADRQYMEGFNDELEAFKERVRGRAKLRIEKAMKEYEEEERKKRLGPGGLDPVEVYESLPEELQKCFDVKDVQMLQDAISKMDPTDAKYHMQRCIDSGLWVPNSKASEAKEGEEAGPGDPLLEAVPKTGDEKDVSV

`O=C1c2ccccc2OCC1c1ccc(F)cc1` (racemic) [KBU2046, (±)-3(4-fluorophenyl)chroman-4-one]: the “% inhibition by competitor” value in test [1] (0.5 uM KBU2046-biotin) is given as 79%; in test [1] (10 uM KBU2046-biotin) it was 33%. Besides, the “binding to CDC37” value on CDC37 is given as “no evidence of KBU2046 binding”.
